Experimental data as given in EPA's ToxRefDB 2.

How the values were obtained:
rat [1] = conditions: Prenatal developmental toxicity study, sprague dawley, Oral, Gavage/Intubation, dose end: 15 GD
dog [2] = conditions: Subchronic oral toxicity in nonrodent, beagle, Feed, dose end: 6 month, group: systemic
dog [3] = conditions: Chronic toxicity; beagle; Oral; Feed; dose end: 52 week; group: systemic; systemic / in life observation / body weight / body weight gain
dog [4] = conditions: Subchronic oral toxicity in nonrodent, beagle, Feed, dose end: 6 month, group: systemic; remark: listed apart in the source
mouse = conditions: Carcinogenicity; cd1; Oral; Feed; dose end: 18 month; group: systemic; systemic / in life observation / body weight / body weight + systemic / in life observation / body weight / body weight gain + systemic / in…
rat [5] = conditions: Prenatal developmental toxicity study, sprague dawley, Oral, Gavage/Intubation, dose end: 17 GD
rat [6] = conditions: Prenatal developmental toxicity study, other, Oral, Gavage/Intubation, dose end: 17 GD
rabbit [7] = conditions: Prenatal developmental toxicity study; new zealand white; Oral; Gavage/Intubation; dose end: 19 GD; group: maternal; systemic / in life observation / body weight / body weight + systemic / in life observation / body weight / body weight gain + systemic / in…
rabbit [8] = conditions: Prenatal developmental toxicity study, new zealand white, Oral, Gavage/Intubation, dose end: 19 GD
[9] = group: developmental, systemic / in life observation / body weight / fetal weight
[10] = group: maternal, reproductive / reproductive performance / implantations / implantations + systemic / in life observation / body weight / body weight gain + …
[11] = systemic / in life observation / body weight / body weight gain
[12] = systemic / in life observation / body weight / body weight gain + systemic / in life observation / food consumption / food consumption
[13] = group: maternal, systemic / in life observation / food consumption / food consumption
[14] = group: maternal, systemic / in life observation / food consumption / food consumption + reproductive / reproductive performance / postimplantation loss / …
[15] = group: maternal, systemic / in life observation / body weight / body weight + systemic / in life observation / food consumption / food consumption
[16] = group: maternal, systemic / in life observation / body weight / body weight + systemic / in life observation / food consumption / food consumption + …
[17] = group: maternal, systemic / in life observation / body weight / body weight + systemic / in life observation / food consumption / food consumption + systemic…

CCc1cccc(C)c1N(C(=O)CCl)C(C)COC (configuration not stated) [Metolachlor] was tested, and the LEL (rat [1]; [9]) was 1000 mg/kg/day, the LOAEL (rat [1]; [9]) was 1000 mg/kg/day and the NEL (rat [1]; [9]) was 300 mg/kg/day. For the same molecule, the NOAEL (rat [1]; [9]) was 300 mg/kg/day, the LOAEL (rat [1]; [10]) was 1000 mg/kg/day and the NEL (rat [1]; [10]) was 100 mg/kg/day. For the same molecule, the NOAEL (rat [1]; [10]) was 300 mg/kg/day, the LEL (rat [1]; group: maternal, systemic / in life observation / clinical signs / salivation) was 300 mg/kg/day and the LOAEL (dog [2]; [11]) was 29.4 mg/kg/day. For the same molecule, the LEL (dog [2]; [12]) was 29.4 mg/kg/day, the NEL (dog [2]; [12]) was 8.77 mg/kg/day and the NOAEL (dog [2]; [12]) was 8.77 mg/kg/day. For the same molecule, the LEL (dog [3]) was 33 mg/kg/day, the LOAEL (dog [3]) was 33 mg/kg/day and the NEL (dog [3]) was 9.7 mg/kg/day. It also gave an NOAEL (dog [3]) of 9.7 mg/kg/day, an LOAEL (dog [4]; [11]) of 29.4 mg/kg/day and an LEL (dog [4]; [12]) of 29.4 mg/kg/day. For the same molecule, the NEL (dog [4]; [12]) was 8.77 mg/kg/day, the NOAEL (dog [4]; [12]) was 8.77 mg/kg/day and the LEL (mouse) was 450 mg/kg/day. It also gave an LOAEL (mouse) of 450 mg/kg/day, an NEL (mouse) of 150 mg/kg/day and an NOAEL (mouse) of 150 mg/kg/day.

For CCCOc1sc(C(=O)N2CCC(c3cc(CN)ccc3F)CC2)c(C)c1Br.Cl [AVE8923], the LEL (rat [5]; [9]) was 75 mg/kg/day, the LOAEL (rat [5]; [9]) was 75 mg/kg/day and the NEL (rat [5]; [9]) was 25 mg/kg/day. The NOAEL (rat [5]; [9]) was 25 mg/kg/day, the LEL (rat [5]; [13]) was 75 mg/kg/day and the LOAEL (rat [5]; [13]) was 75 mg/kg/day. For the same molecule, the NEL (rat [5]; [14]) was 25 mg/kg/day, the NOAEL (rat [5]; [14]) was 25 mg/kg/day and the LEL (rat [6]; [9]) was 100 mg/kg/day. The LOAEL (rat [6]; [9]) was 100 mg/kg/day, the NEL (rat [6]; [9]) was 25 mg/kg/day and the NOAEL (rat [6]; [9]) was 25 mg/kg/day. For the same molecule, the NEL (rat [6]; [15]) was 25 mg/kg/day, the NOAEL (rat [6]; [15]) was 25 mg/kg/day and the LEL (rat [6]; [16]) was 100 mg/kg/day. For the same molecule, the LOAEL (rat [6]; [16]) was 100 mg/kg/day, the LEL (rabbit [7]) was 50 mg/kg/day and the LOAEL (rabbit [7]) was over 300 mg/kg/day. It also gave an NEL (rabbit [7]) of under 50 mg/kg/day, an NOAEL (rabbit [7]) of at least 300 mg/kg/day and an LEL (rabbit [8]; [9]) of 200 mg/kg/day. The LOAEL (rabbit [8]; [9]) was over 200 mg/kg/day, the NEL (rabbit [8]; [9]) was 100 mg/kg/day and the NOAEL (rabbit [8]; [9]) was at least 200 mg/kg/day. The LEL (rabbit [8]; [17]) was 200 mg/kg/day, the LOAEL (rabbit [8]; [17]) was over 200 mg/kg/day and the NEL (rabbit [8]; [17]) was 100 mg/kg/day. The NOAEL (rabbit [8]; [17]) was at least 200 mg/kg/day.
